Laboratory results as given in patent US11981740B2, “BAFF-R antibodies and uses thereof” (CITY OF HOPE, priority 2016, dated 2024).

Legend:
SP49 cells = assay: Ibrutinib sensitivity of parental SP49 cells; type: cell-based
Excerpt: (§1) Animals, cell lines, and primary human tumor samples. BALB/c mice for antibody development and NOD scid gamma (NSG) breeding pairs were purchased from The Jackson Laboratory (Bar Harbor, ME). The NSG breeding colony was maintained by the Animal Resource Center at City of Hope. Mice were housed in a pathogen-free animal facility according to institutional guidelines. All animal studies were approved by the Institutional Animal Care and Use Committee (IACUC: 15020). JeKo-1, SU-DHL-6, Raji, U266 and RL were purchased from ATCC (Manassas, VA). Z-138 line was provided by Dr. Michael Wang (MD Anderson Cancer Center). Ibrutinib-resistant SP49-IR line was developed and provided by Dr. Jianguo Tao (University of South Florida). Ibrutinib-resistant SP49 cell lines (SP49-IR) were established by treating cells with escalating doses of ibrutinib. IC50 was 5 nM for parental SP49 compared to >100 nM for SP49-IR. At 100 nM ibrutinib ˜5% of SP49 cells were viable compared with >90% of SP49-IR cells. Human NK-92 176V cells were obtained from Conkwest Inc. (San Diego, CA). For human blood and tumor samples, non-cultured, primary human lymphomas were obtained as cryopreserved, viable single cell suspensions in 10% DMSO from the Lymphoma Satellite Tissue Bank at MD Anderson Cancer Center under an Institutional Review Board approved protocol (IRB: 2005-0656). […]

SP49-IR cells = assay: Ibrutinib sensitivity of ibrutinib-resistant SP49-IR cells; type: cell-based
Excerpt: as §1

[1] = test system: RS4; 11 (acute lymphoblastic leukemia, ALL); assay: In vivo RS4;11 ALL xenograft, bioluminescence imaging; settings: RS4;11 challenged NSG mice
Excerpt: FIG. 4A is a schematic showing treatment schedule following Day 0 tumor challenge with minimum lethal dose of tumors. Treatments were given by IV tail vein injections. FIGS. 4B and 4C are images showing chimeric antibodies targeting human BAFF-R elicited in vivo therapeutic effects against B-cell tumors. Bioluminescence images of mice challenged with luciferase-expressing tumors: JeKo-1 (MCL) (FIG. 4B) or RS4; 11 (ALL) (FIG. 4C). Experimental groups received treatment of chimeric BAFF-R mAbs (C55 or C90, as indicated). Control group mice received PBS, NK cells alone, or rituximab on the same schedule. Data are representative of three independent experiments.
(§2) In vivo studies. For tumor models, stable, luciferase-expressing tumors lines were established for bioluminescent imaging in mouse models. Briefly, a luciferase gene was introduced into tumor lines by a lentivirus gene delivery system (pLenti7.3/V5-DEST Gateway Vector Kit, Life Technologies, Carlsbad, CA). The minimum lethal dose per mouse was determined for each tumor cell line by dose titration. Tumor cells were injected intravenously (IV) and mice were monitored by in vivo bioluminescence imaging for minimum tumor dose to ensure engraftment. Minimum lethal tumor doses were: 1×10^6 JeKo-1, 5×10^5 RS4; 11, 5×10^5 JeKo-1-CD20-KO, or 2.5×10^4 Z-138 cells. […]

JeKo-1-CD20-KO clone 25 = assay: ADCC on rituximab-resistant JeKo-1-CD20-KO; type: cell-based; settings: E:T=20:1
Protocol: FIGS. 5A, 5B and 5C are images or graphs showing chimeric BAFF-R antibodies induce ADCC on drug resistant lymphoma models in vitro. FIG. 5A is a scatterplot of FACS analysis showing CD20 binding on JeKo-1 cells following CRISPR/HDR knock-out of CD20 gene. CD20 expression on selected CD20−/−clone #25 compared to WT JeKo-1. ADCC effects measured by chromium-51 release after incubation with C55, C90, or rituximab and effectors NK cells (E:T=20:1). Percentage of cell specific lysis of target cells: rituximab-resistant JeKo-1-CD20-KO (FIG. 5B) and ibrutinib-resistant Z-138 and SP49-IR (FIG. 5C). All data are representative of two or more identical experiments. Data are shown as the mean±s.d. of triplicate samples. *P<0.05 compared with NK cells by two-tailed Student's t-test.
Cytotoxicity assays. Target cells (L cells, human tumor lines, primary patient samples) were labeled with chromium-51 (51Cr, Perkin Elmer, Waltham, MA) for a 51Cr release assay. Briefly, antibodies and effectors (NK cells or complement serum standard [Sigma Aldrich, St. Louis, MO]), were added to labeled target cells and incubated up to 18 hours. NK cells were enriched from PBMC (NK cell enrichment kit, Stemcell Technologies, Vancouver, Canada). 51Cr released into supernatant was detected with a Wizard Automatic Gamma Counter (Perkin Elmer).
Generation of JeKo-1-CD20-KO. […]

[2] = test system: JeKo-1-CD20-KO tumor cells; assay: In vivo JeKo-1-CD20-KO xenograft; design: species or system NSG mice; settings: Day 20
Excerpt: FIGS. 6A and 6B are images and FIG. 6C are graphs showing chimeric antibodies targeting human BAFF-R elicited in vivo therapeutic effects against drug resistant B-cell tumors. Bioluminescence images of mice challenged with luciferase-expressing tumors JeKo-1-CD20-KO cells (FIG. 6A) or ibrutinib-resistant Z-138 cells (FIG. 6B) followed by antibody treatments as in FIG. 4. Control group mice received PBS, NK cells alone, or rituximab on the same schedule. […] Tumor free rate and survival differences between experimental and all control groups were analyzed by log-rank test (**P<0.001). Data are representative of three independent experiments.
as §2

[3] = test system: JeKo-1, Z138, and RS4 lines; assay: ADCC chromium release of humanized C90-4 and C90-5, dose response; type: cell-based; settings: RS4 acute lymphoblastic lymphoma
Protocol: FIGS. 21A and 21B are graphs showing humanized antibodies C90-4 and C90-5 analyzed for their specific cytotoxicity of various lymphoma lines. For FIG. 21A, JeKo-1, Z138, and RS4 were subjected to a chromium release assay with humanized antibodies C90-4 and C90-5. Antibodies were administered to the cell lines at concentrations between 0 to 5 μg/mL and incubated for 6 hours with NK cells at an E:T ratio of 20:1. The cell supernatants were analyzed for their chromium content. For FIG. 21B, LY-10, MEC-2, RL, and Raji lymphoma lines were subjected to a chromium release assay with humanized antibodies C90-4 and C90-5. Antibodies were administered to the cell lines at 5 μg/mL and incubated for 6 hours with NK cells at an E:T ratio of 20:1. The cell supernatants were analyzed for their chromium content.
The two variants were further assessed in their ability to initiate ADCC. The antibodies were administered in varying concentration to JeKo-1, Z138, and RS4 lines after a period of chromium uptake. The cells and antibodies were incubated with effector NK cells. The supernatant was analyzed 6 hours post treatment (FIG. 21A).

IC50 (SP49-IR cells)	Compound	viability at 0.1 µM (SP49 cells; At 100 nM ibrutinib, SP49, read-out: viable cells)	IC50 (SP49 cells; parental SP49)	viability at 0.1 µM (SP49-IR cells; At 100 nM ibrutinib, read-out: viable cells)	tumor growth [1]	sensitivity to antibody-mediated cytotoxicity (JeKo-1-CD20-KO clone 25)	tumor burden by bioluminescent imaging [2]	ADCC activity [3]
> 100 nM	C=CC(=O)N1CCC[C@@H](n2nc(-c3ccc(Oc4ccccc4)cc3)c3c(N)ncnc32)C1 [ibrutinib]	~5%	5 nM	> 90%				
	rituximab [reference compound]				no inhibition	insensitive	substantial tumor burden	not active
